Legend:
ISC-enriched organoids [1] = assay: Primary screen, 384-well 2.5-D organoid differentiation (ENR+CD, 6 days): basal lysozyme secretion (LYZ.NS); type: cell-based, murine; details: for Dose.FC.LYZ.NS (log 2 fold change, basal lysozyme secretion): vs plate median; for Dose.FC.LYZ.NS: FC vs plate median
Source text: (§1) High-throughput screening.

ISC-enriched organoids [2] = assay: Primary screen, 384-well 2.5-D organoid differentiation (ENR+CD, 6 days): carbachol-induced lysozyme secretion (LYZ.S); type: cell-based, murine; details: for Dose.FC.LYZ.S (log 2 fold change, carbachol-induced lysozyme secretion): vs plate median; for Dose.FC.LYZ.S: primary screen, FC vs plate median
Source text: as §1

ISC-enriched organoids [3] = assay: Primary screen, 384-well 2.5-D organoid differentiation (ENR+CD, 6 days, Target Selective Inhibitor Library, vs whole-plate median): ATP (CellTiter-Glo 3D, CTG); details: for Dose.FC.CTG (log 2 fold change, ATP): vs plate median; for Dose.FC.CTG: FC vs plate median
[4] = Dose 0.08 uM, standard z score of FC
[5] = Dose 0.40 uM, standard z score of FC
[6] = Dose 2.00 uM, standard z score of FC
[7] = Dose 10.00 uM, standard z score of FC
[8] = primary screen, dose 0.08 uM, ENR+CD 6 days
[9] = primary screen, dose 0.08 uM, standard z score of FC
[10] = primary screen, dose 0.40 uM, ENR+CD 6 days
[11] = primary screen, dose 0.40 uM, standard z score of FC
[12] = primary screen, dose 2.00 uM, ENR+CD 6 days
[13] = primary screen, dose 2.00 uM, standard z score of FC
[14] = primary screen, dose 10.00 uM, ENR+CD 6 days
[15] = primary screen, dose 10.00 uM, standard z score of FC
[16] = Dose 0.08 uM, primary screen, standard z score
[17] = Dose 0.40 uM, primary screen, standard z score
[18] = Dose 2.00 uM, primary screen, standard z score
[19] = Dose 10.00 uM, primary screen, standard z score

CS(=O)(=O)c1ccc(-c2cnc(N)c(C(=O)Nc3ccccc3)n2)cc1 [VE-821]
Z.LYZ.NS (standard z score) (ISC-enriched organoids [1]; dose 0.08 uM): 0.924
Dose.FC.LYZ.NS (log 2 fold change, basal lysozyme secretion) (ISC-enriched organoids [1]; dose 0.08 uM): 0.106
Z.LYZ.NS (standard z score) (ISC-enriched organoids [1]; dose 0.40 uM): 0.544
Dose.FC.LYZ.NS (log 2 fold change, basal lysozyme secretion) (ISC-enriched organoids [1]; dose 0.40 uM): 0.063
Z.LYZ.NS (standard z score) (ISC-enriched organoids [1]; dose 2.00 uM): 0.901
Dose.FC.LYZ.NS (log 2 fold change, basal lysozyme secretion) (ISC-enriched organoids [1]; dose 2.00 uM): 0.103
Z.LYZ.NS (standard z score) (ISC-enriched organoids [1]; dose 10.00 uM): −2.475
Dose.FC.LYZ.NS (log 2 fold change, basal lysozyme secretion) (ISC-enriched organoids [1]; dose 10.00 uM): −0.284
Dose.FC.LYZ.S (log 2 fold change, carbachol-induced lysozyme secretion) (ISC-enriched organoids [2]; dose 0.08 uM): 0.130
Dose.FC.LYZ.S (log 2 fold change, carbachol-induced lysozyme secretion) (ISC-enriched organoids [2]; dose 0.40 uM): 0.089
Dose.FC.LYZ.S (log 2 fold change, carbachol-induced lysozyme secretion) (ISC-enriched organoids [2]; dose 2.00 uM): −0.004
Dose.FC.LYZ.S (log 2 fold change, carbachol-induced lysozyme secretion) (ISC-enriched organoids [2]; dose 10.00 uM): −0.429
Z.CTG (standard z score) (ISC-enriched organoids [3]; dose 0.08 uM): 0.508
Dose.FC.CTG (log 2 fold change, ATP) (ISC-enriched organoids [3]; dose 0.08 uM): 0.213
Z.CTG (standard z score) (ISC-enriched organoids [3]; dose 0.40 uM): 0.311
Dose.FC.CTG (log 2 fold change, ATP) (ISC-enriched organoids [3]; dose 0.40 uM): 0.130
Z.CTG (standard z score) (ISC-enriched organoids [3]; dose 2.00 uM): −0.328
Dose.FC.CTG (log 2 fold change, ATP) (ISC-enriched organoids [3]; dose 2.00 uM): −0.137
Z.CTG (standard z score) (ISC-enriched organoids [3]; dose 10.00 uM): −2.006
Dose.FC.CTG (log 2 fold change, ATP) (ISC-enriched organoids [3]; dose 10.00 uM): −0.840

C[C@]1(O)C[C@@H](c2nc(-c3ccc4ccc(-c5ccccc5)nc4c3)c3c(N)nccn32)C1 [OSI-906 (Linsitinib)]
Dose.FC.LYZ.NS (ISC-enriched organoids [1]; Dose 0.08 uM, primary screen): 0.013 log 2 fold change
Z.LYZ.NS (ISC-enriched organoids [1]; [4]): 0.110
Dose.FC.LYZ.NS (ISC-enriched organoids [1]; Dose 0.40 uM, primary screen): −0.093 log 2 fold change
Z.LYZ.NS (ISC-enriched organoids [1]; [5]): −0.806
Dose.FC.LYZ.NS (ISC-enriched organoids [1]; Dose 2.00 uM, primary screen): −0.216 log 2 fold change
Z.LYZ.NS (ISC-enriched organoids [1]; [6]): −1.882
Dose.FC.LYZ.NS (ISC-enriched organoids [1]; Dose 10.00 uM, primary screen): −0.229 log 2 fold change
Z.LYZ.NS (ISC-enriched organoids [1]; [7]): −1.996
Dose.FC.LYZ.S (ISC-enriched organoids [2]; Dose 0.08 uM): −0.026 log 2 fold change
Dose.FC.LYZ.S (ISC-enriched organoids [2]; Dose 0.40 uM): −0.119 log 2 fold change
Dose.FC.LYZ.S (ISC-enriched organoids [2]; Dose 2.00 uM): −0.288 log 2 fold change
Dose.FC.LYZ.S (ISC-enriched organoids [2]; Dose 10.00 uM): −0.328 log 2 fold change
Dose.FC.CTG (ISC-enriched organoids [3]; Dose 0.08 uM, primary screen): −0.324 log 2 fold change
Z.CTG (ISC-enriched organoids [3]; [4]): −0.775
Dose.FC.CTG (ISC-enriched organoids [3]; Dose 0.40 uM, primary screen): −0.158 log 2 fold change
Z.CTG (ISC-enriched organoids [3]; [5]): −0.377
Dose.FC.CTG (ISC-enriched organoids [3]; Dose 2.00 uM, primary screen): −0.277 log 2 fold change
Z.CTG (ISC-enriched organoids [3]; [6]): −0.661
Dose.FC.CTG (ISC-enriched organoids [3]; Dose 10.00 uM, primary screen): −0.391 log 2 fold change
Z.CTG (ISC-enriched organoids [3]; [7]): −0.934

NC(=O)Nc1cc(-c2cccc(F)c2)sc1C(=O)N[C@H]1CCCNC1 [AZD7762]
Dose.FC.LYZ.NS (ISC-enriched organoids [1]; [8]): 0.010 log 2 fold change
Z.LYZ.NS (ISC-enriched organoids [1]; [9]): 0.084
Dose.FC.LYZ.NS (ISC-enriched organoids [1]; [10]): −0.159 log 2 fold change
Z.LYZ.NS (ISC-enriched organoids [1]; [11]): −1.385
Dose.FC.LYZ.NS (ISC-enriched organoids [1]; [12]): −0.211 log 2 fold change
Z.LYZ.NS (ISC-enriched organoids [1]; [13]): −1.835
Dose.FC.LYZ.NS (ISC-enriched organoids [1]; [14]): −0.220 log 2 fold change
Z.LYZ.NS (ISC-enriched organoids [1]; [15]): −1.917
Dose.FC.LYZ.S (ISC-enriched organoids [2]; dose 0.08 uM, ENR+CD 6 days): 0.019 log 2 fold change
Dose.FC.LYZ.S (ISC-enriched organoids [2]; dose 0.40 uM, ENR+CD 6 days): −0.251 log 2 fold change
Dose.FC.LYZ.S (ISC-enriched organoids [2]; dose 2.00 uM, ENR+CD 6 days): −0.342 log 2 fold change
Dose.FC.LYZ.S (ISC-enriched organoids [2]; dose 10.00 uM, ENR+CD 6 days): −0.369 log 2 fold change
Dose.FC.CTG (ISC-enriched organoids [3]; [8]): 0.054 log 2 fold change
Z.CTG (ISC-enriched organoids [3]; [9]): 0.129
Dose.FC.CTG (ISC-enriched organoids [3]; [10]): −0.384 log 2 fold change
Z.CTG (ISC-enriched organoids [3]; [11]): −0.917
Dose.FC.CTG (ISC-enriched organoids [3]; [12]): −0.804 log 2 fold change
Z.CTG (ISC-enriched organoids [3]; [13]): −1.920
Dose.FC.CTG (ISC-enriched organoids [3]; [14]): −1.361 log 2 fold change
Z.CTG (ISC-enriched organoids [3]; [15]): −3.251

C[C@@H](Oc1cc(-n2cnc3ccc(CN4CCN(C)CC4)cc32)sc1C(N)=O)c1ccccc1C(F)(F)F [GSK461364]
Dose.FC.LYZ.NS (ISC-enriched organoids [1]; Dose 0.08 uM, primary screen): 0.078 log 2 fold change
Z.LYZ.NS (ISC-enriched organoids [1]; [16]): 0.682
Dose.FC.LYZ.NS (ISC-enriched organoids [1]; Dose 0.40 uM, primary screen): −0.096 log 2 fold change
Z.LYZ.NS (ISC-enriched organoids [1]; [17]): −0.834
Dose.FC.LYZ.NS (ISC-enriched organoids [1]; Dose 2.00 uM, primary screen): −0.246 log 2 fold change
Z.LYZ.NS (ISC-enriched organoids [1]; [18]): −2.138
Dose.FC.LYZ.NS (ISC-enriched organoids [1]; Dose 10.00 uM, primary screen): −0.287 log 2 fold change
Z.LYZ.NS (ISC-enriched organoids [1]; [19]): −2.498
Dose.FC.LYZ.S (ISC-enriched organoids [2]; Dose 0.08 uM): 0.112 log 2 fold change
Dose.FC.LYZ.S (ISC-enriched organoids [2]; Dose 0.40 uM): −0.093 log 2 fold change
Dose.FC.LYZ.S (ISC-enriched organoids [2]; Dose 2.00 uM): −0.352 log 2 fold change
Dose.FC.LYZ.S (ISC-enriched organoids [2]; Dose 10.00 uM): −0.390 log 2 fold change
Dose.FC.CTG (ISC-enriched organoids [3]; Dose 0.08 uM, primary screen): 0.160 log 2 fold change
Z.CTG (ISC-enriched organoids [3]; [16]): 0.383
Dose.FC.CTG (ISC-enriched organoids [3]; Dose 0.40 uM, primary screen): −0.154 log 2 fold change
Z.CTG (ISC-enriched organoids [3]; [17]): −0.368
Dose.FC.CTG (ISC-enriched organoids [3]; Dose 2.00 uM, primary screen): −0.628 log 2 fold change
Z.CTG (ISC-enriched organoids [3]; [18]): −1.500
Dose.FC.CTG (ISC-enriched organoids [3]; Dose 10.00 uM, primary screen): −0.621 log 2 fold change
Z.CTG (ISC-enriched organoids [3]; [19]): −1.484
